Experimental data published in ChEMBL document CHEMBL4507288 (2021).

Tests used:
[1] = target: Activin receptor type-1B (Homo sapiens) (UniProt P36896); settings: Compound concentration 1000.0 nM
[2] = target: Activin receptor type-2A (Homo sapiens) (UniProt P27037); settings: Compound concentration 1000.0 nM
[3] = target: RAC-gamma serine/threonine-protein kinase (Homo sapiens) (UniProt Q9Y243); settings: Compound concentration 1000.0 nM
[4] = target: Calcium/calmodulin-dependent protein kinase type 1B (Homo sapiens) (UniProt Q6P2M8); settings: Compound concentration 1000.0 nM
[5] = target: Calcium/calmodulin-dependent protein kinase type II subunit gamma (Homo sapiens) (UniProt Q13555); settings: Compound concentration 1000.0 nM
[6] = target: Calcium/calmodulin-dependent protein kinase kinase 1 (Homo sapiens) (UniProt Q8N5S9); settings: Compound concentration 1000.0 nM
[7] = target: Cyclin-dependent kinase 11A (Homo sapiens) (UniProt Q9UQ88); settings: Compound concentration 1000.0 nM
[8] = target: Cyclin-dependent kinase-like 3 (Homo sapiens) (UniProt Q8IVW4); settings: Compound concentration 1000.0 nM
Cyclin-dependent kinase-like 3 (Homo sapiens), sequence (Q8IVW4 whole entry, looked up, canonical isoform): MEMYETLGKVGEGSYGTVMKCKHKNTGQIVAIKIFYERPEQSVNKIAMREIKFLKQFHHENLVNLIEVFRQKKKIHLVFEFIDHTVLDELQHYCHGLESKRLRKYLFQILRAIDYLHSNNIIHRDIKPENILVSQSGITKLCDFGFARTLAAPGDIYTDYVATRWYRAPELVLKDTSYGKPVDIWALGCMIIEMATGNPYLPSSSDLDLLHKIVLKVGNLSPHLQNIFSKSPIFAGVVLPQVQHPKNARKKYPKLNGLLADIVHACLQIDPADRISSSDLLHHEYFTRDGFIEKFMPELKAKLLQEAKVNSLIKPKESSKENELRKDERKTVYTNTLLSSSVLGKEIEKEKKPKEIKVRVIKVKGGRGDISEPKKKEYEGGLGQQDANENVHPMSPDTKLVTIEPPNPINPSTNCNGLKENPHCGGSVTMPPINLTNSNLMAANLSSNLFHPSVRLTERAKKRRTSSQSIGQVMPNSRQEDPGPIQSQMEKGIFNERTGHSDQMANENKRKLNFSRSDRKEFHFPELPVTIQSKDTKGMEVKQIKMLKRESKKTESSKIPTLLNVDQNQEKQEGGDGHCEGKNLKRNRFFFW

[9] = target: Casein kinase I isoform gamma-2 (Homo sapiens) (UniProt P78368); settings: Compound concentration 1000.0 nM
[10] = target: Death-associated protein kinase 3 (Homo sapiens) (UniProt O43293); settings: Compound concentration 1000.0 nM
[11] = target: Serine/threonine-protein kinase 17B (Homo sapiens) (UniProt O94768); settings: Compound concentration 1000.0 nM
[12] = system: Epidermal growth factor receptor (Homo sapiens), P00533 [UNDEFINED MUTATION]; settings: Compound concentration 1000.0 nM
[13] = system: Epidermal growth factor receptor (Homo sapiens), P00533 [L858R,T790M]; settings: Compound concentration 1000.0 nM
[14] = target: Mitogen-activated protein kinase 3 (Homo sapiens) (UniProt P27361); settings: Compound concentration 1000.0 nM
[15] = target: Serine/threonine-protein kinase/endoribonuclease IRE1 (Homo sapiens) (UniProt O75460); settings: Compound concentration 1000.0 nM
[16] = target: Tyrosine-protein kinase Fer (Homo sapiens) (UniProt P16591); settings: Compound concentration 1000.0 nM
Tyrosine-protein kinase Fer (Homo sapiens), sequence (P16591 whole entry, looked up): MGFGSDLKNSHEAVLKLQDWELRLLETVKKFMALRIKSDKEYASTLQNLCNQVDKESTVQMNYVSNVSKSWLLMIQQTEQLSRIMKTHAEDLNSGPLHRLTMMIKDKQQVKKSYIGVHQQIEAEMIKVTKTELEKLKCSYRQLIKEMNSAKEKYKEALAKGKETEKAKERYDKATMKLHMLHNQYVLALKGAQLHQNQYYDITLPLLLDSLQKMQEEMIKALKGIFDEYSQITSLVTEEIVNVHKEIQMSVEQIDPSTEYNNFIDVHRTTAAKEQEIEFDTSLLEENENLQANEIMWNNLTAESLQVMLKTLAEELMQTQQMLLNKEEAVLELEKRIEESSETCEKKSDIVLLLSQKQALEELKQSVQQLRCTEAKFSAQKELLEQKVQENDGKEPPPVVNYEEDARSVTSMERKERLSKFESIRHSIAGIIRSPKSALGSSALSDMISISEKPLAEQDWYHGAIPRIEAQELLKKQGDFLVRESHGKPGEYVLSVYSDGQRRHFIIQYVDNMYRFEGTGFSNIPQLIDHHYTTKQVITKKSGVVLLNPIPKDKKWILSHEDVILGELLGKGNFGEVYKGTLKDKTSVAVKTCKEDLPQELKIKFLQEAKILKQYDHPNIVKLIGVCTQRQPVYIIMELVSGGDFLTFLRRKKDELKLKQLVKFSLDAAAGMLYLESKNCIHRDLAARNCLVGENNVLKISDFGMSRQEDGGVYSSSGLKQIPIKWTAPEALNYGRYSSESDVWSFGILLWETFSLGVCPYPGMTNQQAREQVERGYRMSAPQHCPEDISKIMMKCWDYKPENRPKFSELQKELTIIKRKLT

[17] = target: G protein-coupled receptor kinase 4 (Homo sapiens) (UniProt P32298); settings: Compound concentration 1000.0 nM
[18] = system: Leucine-rich repeat serine/threonine-protein kinase 2 (Homo sapiens), Q5S007 [G2019S]; settings: Compound concentration 1000.0 nM
[19] = target: MAP kinase-activated protein kinase 2 (Homo sapiens) (UniProt P49137); settings: Compound concentration 1000.0 nM
[20] = target: MAP/microtubule affinity-regulating kinase 3 (Homo sapiens) (UniProt P27448); settings: Compound concentration 1000.0 nM
[21] = target: MAP/microtubule affinity-regulating kinase 4 (Homo sapiens) (UniProt Q96L34); settings: Compound concentration 1000.0 nM
MAP/microtubule affinity-regulating kinase 4 (Homo sapiens), sequence (Q96L34 whole entry): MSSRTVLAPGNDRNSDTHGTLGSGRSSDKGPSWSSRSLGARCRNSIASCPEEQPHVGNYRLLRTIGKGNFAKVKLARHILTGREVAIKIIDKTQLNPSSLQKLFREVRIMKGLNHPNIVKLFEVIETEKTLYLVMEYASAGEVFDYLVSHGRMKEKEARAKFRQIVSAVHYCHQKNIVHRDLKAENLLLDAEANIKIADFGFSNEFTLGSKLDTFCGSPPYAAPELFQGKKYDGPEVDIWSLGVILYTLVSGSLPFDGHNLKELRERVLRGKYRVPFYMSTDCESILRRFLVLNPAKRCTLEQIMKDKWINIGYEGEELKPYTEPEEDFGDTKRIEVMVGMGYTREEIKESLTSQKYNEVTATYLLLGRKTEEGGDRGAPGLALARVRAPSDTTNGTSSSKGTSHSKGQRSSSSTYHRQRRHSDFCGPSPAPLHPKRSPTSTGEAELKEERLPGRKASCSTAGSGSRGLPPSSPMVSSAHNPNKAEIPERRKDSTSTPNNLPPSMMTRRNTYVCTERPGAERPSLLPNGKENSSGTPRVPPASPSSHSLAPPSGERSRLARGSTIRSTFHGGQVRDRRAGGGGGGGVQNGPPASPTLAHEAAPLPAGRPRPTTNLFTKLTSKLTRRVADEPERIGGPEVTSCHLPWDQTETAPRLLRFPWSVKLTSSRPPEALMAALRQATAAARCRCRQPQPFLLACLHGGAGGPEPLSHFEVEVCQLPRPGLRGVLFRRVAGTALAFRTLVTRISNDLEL

[22] = target: Dual specificity mitogen-activated protein kinase kinase 1 (Homo sapiens) (UniProt Q02750); settings: Compound concentration 1000.0 nM
[23] = system: Hepatocyte growth factor receptor (Homo sapiens), P08581 [M1250T]; settings: Compound concentration 1000.0 nM
[24] = target: Macrophage-stimulating protein receptor (Homo sapiens) (UniProt Q04912); settings: Compound concentration 1000.0 nM
[25] = target: Serine/threonine-protein kinase Nek10 (Homo sapiens) (UniProt Q6ZWH5); settings: Compound concentration 1000.0 nM
[26] = target: Mitogen-activated protein kinase 11 (Homo sapiens) (UniProt Q15759); settings: Compound concentration 1000.0 nM
[27] = target: Cyclin-dependent kinase 17 (Homo sapiens) (UniProt Q00537); settings: Compound concentration 1000.0 nM
[28] = target: Phosphatidylinositol 5-phosphate 4-kinase type-2 gamma (Homo sapiens) (UniProt Q8TBX8); settings: Compound concentration 1000.0 nM
Phosphatidylinositol 5-phosphate 4-kinase type-2 gamma (Homo sapiens), sequence (Q8TBX8 whole entry): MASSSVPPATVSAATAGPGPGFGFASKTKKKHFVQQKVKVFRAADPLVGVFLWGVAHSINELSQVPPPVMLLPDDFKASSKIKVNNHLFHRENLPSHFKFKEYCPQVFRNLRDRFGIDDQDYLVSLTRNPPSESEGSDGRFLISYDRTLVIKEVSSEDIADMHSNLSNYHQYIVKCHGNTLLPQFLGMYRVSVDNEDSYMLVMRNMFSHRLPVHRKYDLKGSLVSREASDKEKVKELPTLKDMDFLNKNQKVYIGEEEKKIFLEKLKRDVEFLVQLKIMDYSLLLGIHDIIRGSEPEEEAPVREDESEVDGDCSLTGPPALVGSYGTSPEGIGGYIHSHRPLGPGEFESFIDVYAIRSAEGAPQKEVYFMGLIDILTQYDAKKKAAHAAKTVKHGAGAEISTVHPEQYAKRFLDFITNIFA

[29] = target: cAMP-dependent protein kinase catalytic subunit PRKX (Homo sapiens) (UniProt P51817); settings: Compound concentration 1000.0 nM
[30] = target: Ribosomal protein S6 kinase alpha-5 (Homo sapiens) (UniProt O75582); settings: Compound concentration 1000.0 nM
[31] = target: Ribosomal protein S6 kinase alpha-6 (Homo sapiens) (UniProt Q9UK32); settings: Compound concentration 1000.0 nM
[32] = target: Serine/threonine-protein kinase Sgk1 (Homo sapiens) (UniProt O00141); settings: Compound concentration 1000.0 nM
[33] = target: Serine/threonine-protein kinase Sgk2 (Homo sapiens) (UniProt Q9HBY8); settings: Compound concentration 1000.0 nM
[34] = target: SRSF protein kinase 1 (Homo sapiens) (UniProt Q96SB4); settings: Compound concentration 1000.0 nM
SRSF protein kinase 1 (Homo sapiens), sequence (Q96SB4 whole entry): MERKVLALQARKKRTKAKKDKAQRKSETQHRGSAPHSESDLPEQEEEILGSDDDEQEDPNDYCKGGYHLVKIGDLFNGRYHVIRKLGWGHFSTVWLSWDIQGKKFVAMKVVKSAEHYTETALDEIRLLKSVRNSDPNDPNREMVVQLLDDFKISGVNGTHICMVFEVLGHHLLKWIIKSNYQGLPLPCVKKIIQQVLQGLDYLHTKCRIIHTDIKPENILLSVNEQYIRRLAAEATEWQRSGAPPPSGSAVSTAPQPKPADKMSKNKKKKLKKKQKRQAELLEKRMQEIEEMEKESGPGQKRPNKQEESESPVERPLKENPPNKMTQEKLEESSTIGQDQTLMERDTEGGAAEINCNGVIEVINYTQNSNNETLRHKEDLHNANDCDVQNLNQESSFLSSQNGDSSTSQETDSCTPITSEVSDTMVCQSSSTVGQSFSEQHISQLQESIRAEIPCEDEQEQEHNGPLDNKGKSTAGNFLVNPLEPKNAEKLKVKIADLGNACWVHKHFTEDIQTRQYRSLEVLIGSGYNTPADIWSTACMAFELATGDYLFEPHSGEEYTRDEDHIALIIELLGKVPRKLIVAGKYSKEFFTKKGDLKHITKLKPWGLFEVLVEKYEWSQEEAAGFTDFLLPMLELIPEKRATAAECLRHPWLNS

[35] = target: Serine/threonine-protein kinase 16 (Homo sapiens) (UniProt O75716); settings: Compound concentration 1000.0 nM
[36] = target: Dual specificity testis-specific protein kinase 1 (Homo sapiens) (UniProt Q15569); settings: Compound concentration 1000.0 nM
[37] = target: Serine/threonine-protein kinase TNNI3K (Homo sapiens) (UniProt Q59H18); settings: Compound concentration 1000.0 nM
[38] = target: BDNF/NT-3 growth factors receptor (Homo sapiens) (UniProt Q16620); settings: Compound concentration 1000.0 nM
[39] = target: Serine/threonine-protein kinase ULK2 (Homo sapiens) (UniProt Q8IYT8); settings: Compound concentration 1000.0 nM
[40] = target: Wee1-like protein kinase 2 (Homo sapiens) (UniProt P0C1S8); settings: Compound concentration 1000.0 nM
[41] = target: Serine/threonine-protein kinase 32A (Homo sapiens) (UniProt Q8WU08); settings: Compound concentration 1000.0 nM
[42] = target: Sigma non-opioid intracellular receptor 1 (Homo sapiens, UniProt Q99720); assay: GPCRScan assay: inhibition of Sigma 1; set-up: radioligand conc. used [nm] 4.0 – 5.0, parental cells HEKT
Sigma non-opioid intracellular receptor 1, sequence (Q99720 whole entry): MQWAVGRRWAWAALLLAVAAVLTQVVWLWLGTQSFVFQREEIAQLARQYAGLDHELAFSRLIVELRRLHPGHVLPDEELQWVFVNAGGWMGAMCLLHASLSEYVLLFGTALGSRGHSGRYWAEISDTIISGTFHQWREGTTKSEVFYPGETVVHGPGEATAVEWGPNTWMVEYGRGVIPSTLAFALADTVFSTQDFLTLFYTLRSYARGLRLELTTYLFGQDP

[43] = target: GABA-A receptor; anion channel (Rattus norvegicus) (UniProt O09028+P15431+P18506+P18508+P19969+P20236+P23574+P23576+P28471+P28473+P30191+P62813+P63079+P63138+Q91ZM7+Q9ES14); settings: Compound concentration 10.0 uM

RAC-gamma serine/threonine-protein kinase (Homo sapiens), sequence (Q9Y243 whole entry): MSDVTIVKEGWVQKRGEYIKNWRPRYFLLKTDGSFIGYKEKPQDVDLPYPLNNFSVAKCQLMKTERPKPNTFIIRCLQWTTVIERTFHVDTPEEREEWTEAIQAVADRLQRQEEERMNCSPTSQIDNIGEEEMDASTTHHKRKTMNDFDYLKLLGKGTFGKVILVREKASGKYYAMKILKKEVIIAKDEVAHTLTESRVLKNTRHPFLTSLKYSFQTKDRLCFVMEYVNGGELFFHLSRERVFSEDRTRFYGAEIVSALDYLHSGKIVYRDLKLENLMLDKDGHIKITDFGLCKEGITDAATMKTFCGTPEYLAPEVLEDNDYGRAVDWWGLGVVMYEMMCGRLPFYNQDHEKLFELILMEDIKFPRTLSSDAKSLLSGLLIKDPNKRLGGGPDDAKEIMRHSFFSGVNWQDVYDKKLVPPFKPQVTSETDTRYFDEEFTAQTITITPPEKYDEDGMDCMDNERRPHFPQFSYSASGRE
Activin receptor type-1B (Homo sapiens), sequence (P36896 whole entry): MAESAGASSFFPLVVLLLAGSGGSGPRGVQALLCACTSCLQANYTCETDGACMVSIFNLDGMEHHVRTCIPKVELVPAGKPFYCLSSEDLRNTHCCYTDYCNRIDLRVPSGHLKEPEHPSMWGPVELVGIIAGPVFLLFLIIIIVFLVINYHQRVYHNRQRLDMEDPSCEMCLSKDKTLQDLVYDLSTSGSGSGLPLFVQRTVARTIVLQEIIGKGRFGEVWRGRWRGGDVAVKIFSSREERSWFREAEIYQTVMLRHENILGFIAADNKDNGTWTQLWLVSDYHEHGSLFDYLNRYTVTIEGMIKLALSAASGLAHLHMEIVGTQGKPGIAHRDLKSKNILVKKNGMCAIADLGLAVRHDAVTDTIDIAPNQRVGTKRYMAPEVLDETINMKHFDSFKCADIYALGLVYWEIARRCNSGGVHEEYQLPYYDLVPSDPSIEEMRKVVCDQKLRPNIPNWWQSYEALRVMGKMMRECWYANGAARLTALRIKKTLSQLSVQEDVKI
Activin receptor type-2A (Homo sapiens), sequence (P27037 whole entry): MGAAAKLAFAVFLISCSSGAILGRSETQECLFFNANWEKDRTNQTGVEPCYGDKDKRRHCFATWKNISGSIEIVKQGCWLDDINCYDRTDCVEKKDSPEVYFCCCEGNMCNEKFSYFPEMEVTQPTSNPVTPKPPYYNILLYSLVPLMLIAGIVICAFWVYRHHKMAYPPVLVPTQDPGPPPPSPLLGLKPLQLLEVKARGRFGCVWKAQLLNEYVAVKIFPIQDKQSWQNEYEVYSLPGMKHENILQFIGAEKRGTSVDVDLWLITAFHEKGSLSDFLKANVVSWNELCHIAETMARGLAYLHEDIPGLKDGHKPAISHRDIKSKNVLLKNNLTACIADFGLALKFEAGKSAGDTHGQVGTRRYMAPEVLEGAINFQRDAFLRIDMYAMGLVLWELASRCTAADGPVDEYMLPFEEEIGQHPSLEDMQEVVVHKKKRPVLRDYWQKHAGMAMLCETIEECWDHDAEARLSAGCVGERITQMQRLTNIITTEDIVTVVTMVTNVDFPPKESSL

Which residual activity [1] does the source give for `O=S(=O)(NC1CCC(c2cc(F)ccc2F)(S(=O)(=O)c2ccc(Cl)cc2)CC1)C(F)(F)F` (stereo not drawn) [MRK-560] here?
The residual activity was 87%.

And the residual activity [2]?
Its residual activity is 63%.

What about the residual activity [3] of the same compound?
The residual activity was 100%.

And the residual activity [4]?
The residual activity was 100%.

And the residual activity [5]?
Its residual activity is 100%.

And the residual activity [6]?
The residual activity was 100%.

What about the residual activity [7] of the same compound?
The residual activity was 96%.

And the residual activity [8]?
Its residual activity is 100%.

What about the residual activity [9] of the same compound?
The residual activity was 99%.

What about the residual activity [10] of the same compound?
The residual activity was 97%.

What about the residual activity [11] of the same compound?
Its residual activity is 97%.

What about the residual activity [12] of the same compound?
The residual activity was 100%.

What about the residual activity [13] of the same compound?
The residual activity was 89%.

And the residual activity [14]?
The residual activity was 100%.

And the residual activity [15]?
Its residual activity is 100%.

And the residual activity [16]?
Its residual activity is 100%.

What about the residual activity [17] of the same compound?
The residual activity was 100%.

And the residual activity [18]?
Its residual activity is 100%.

And the residual activity [19]?
The residual activity was 93%.

What about the residual activity [20] of the same compound?
The residual activity was 79%.

What about the residual activity [21] of the same compound?
The residual activity was 100%.

What about the residual activity [22] of the same compound?
The residual activity was 100%.

And the residual activity [23]?
The residual activity was 84%.

What about the residual activity [24] of the same compound?
Its residual activity is 93%.

And the residual activity [25]?
The residual activity was 100%.

What about the residual activity [26] of the same compound?
Its residual activity is 94%.

And the residual activity [27]?
The residual activity was 100%.

And the residual activity [28]?
The residual activity was 100%.

And the residual activity [29]?
The residual activity was 100%.

What about the residual activity [30] of the same compound?
The residual activity was 71%.

And the residual activity [31]?
The residual activity was 90%.

And the residual activity [32]?
Its residual activity is 83%.

What about the residual activity [33] of the same compound?
Its residual activity is 93%.

And the residual activity [34]?
The residual activity was 100%.

And the residual activity [35]?
Its residual activity is 97%.

And the residual activity [36]?
Its residual activity is 100%.

And the residual activity [37]?
Its residual activity is 100%.

What about the residual activity [38] of the same compound?
The residual activity was 83%.

What about the residual activity [39] of the same compound?
The residual activity was 100%.

And the residual activity [40]?
Its residual activity is 100%.

And the residual activity [41]?
Its residual activity is 97%.

Which results are given for `CC(C)(C)OC(=O)N1CCCC1CNC1CCC(c2cc(F)ccc2F)(S(=O)(=O)c2ccc(Cl)cc2)CC1` (stereo not drawn) [GSI-NC]?
Ki [42]: 223 nM; inhibition [43]: 11%
